Target: human M4 receptor (Homo sapiens (Human), UniProt P08173)
Test: Binding assay: inhibition of radioligand (tritiated N-methylscopolamine) binding to membranes from CHO cells expressing human M4 receptor
Conditions: CHO cell membranes, 1.5 nM tritiated N-methylscopolamine
Protocol: Binding affinity (Ki) for the compounds was measured by inhibition of radioligand binding to membranes from CHO cells expressing human M4 receptor. Membranes were prepared by nitrogen cavitation and differential centrifugation as previously described (Hoare et al., Mol. Pharmacol. 2003 March; 63(3): 751-65). The radioligand employed was tritiated N-methylscopolamine, used at a concentration of 1.5 nM. A dose-response of twelve concentrations of compound was used, ranging from […]. The assay buffer was 50 mM HEPES, 100 mM NaCl, 5 mM MgCl2, 1 mM ethylenediaminetetraacetic acid, pH-adjusted to pH 7.4. Membranes, radioligand and compound were incubated together for 90 minutes at 37° C., in a total volume of 150 μL in a 96-well plate. Receptor-bound radioligand was then collected by harvesting the assay over glass fiber filters pretreated with polyethylenimine to trap the cell membranes, using rapid vacuum filtration. Harvesting and radioactivity counting was conducted as previously described (see, e.g., Hoare et al., Mol. Pharmacol. 2003 63(3):751-65); Erratum at Mol. Pharmacol. 2005 July; 68(1): 260).

Sequence of human M4 receptor (P08173 whole entry): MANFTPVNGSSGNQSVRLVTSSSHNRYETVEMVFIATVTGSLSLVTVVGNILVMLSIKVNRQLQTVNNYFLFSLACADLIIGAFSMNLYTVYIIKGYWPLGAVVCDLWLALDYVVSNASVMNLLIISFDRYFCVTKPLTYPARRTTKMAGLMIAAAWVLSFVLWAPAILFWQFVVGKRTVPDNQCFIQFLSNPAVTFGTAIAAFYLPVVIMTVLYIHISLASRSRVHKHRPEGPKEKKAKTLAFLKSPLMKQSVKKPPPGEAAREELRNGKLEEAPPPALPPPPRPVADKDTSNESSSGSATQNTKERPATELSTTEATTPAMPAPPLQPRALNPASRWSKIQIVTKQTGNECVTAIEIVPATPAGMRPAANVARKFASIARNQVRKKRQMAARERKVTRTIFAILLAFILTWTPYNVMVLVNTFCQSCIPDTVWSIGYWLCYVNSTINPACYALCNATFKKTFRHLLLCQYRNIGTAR

Row | Compound | Ki [nM]
1 | C[C@@H]1CN(c2ncc3c(n2)CCS3(=O)=O)C[C@H](C)N1C(=O)OC1CC2(C1)CN(Cc1ccccc1)C2 [Compound 39, 2-benzyl-2-azaspiro [3.3]heptan-6-yl (2R,6S)-4-{5,5-dioxo-6H, 7H-5λ^6-thieno[3,2-d]pyrimidin-2-yl}-2,6-dimethylpiperazine-1-carboxylate] | 100 to 500
2 | C[C@@H]1CN(c2ncc(S(C)(=O)=O)cn2)[C@@H](C)CN1C(=O)OC1CC2(C1)CN(Cc1ccc(Cl)cc1)C2 [Compound 37, 2-[(4-chlorophenyl)methyl]-2-azaspiro[3.3] heptan-6-yl (2R,5S)-4-(5-methanesulfonylpyrimidin-2-yl)-2,5-dimethyl-piperazine-1-carboxylate] | < 100
3 | CCS(=O)(=O)c1cnc(N2C[C@@H](C)N(C(=O)NC3CC4(C3)CN(Cc3ccccc3)C4)[C@@H](C)C2)nc1 [Compound 2, (2R,6S)-N-{2-benzyl-2-azaspiro[3.3]heptan-6-yl}-4-[5-(ethanesulfonyl)pyrimidin-2-yl]-2,6-dimethylpiperazine-1-carboxamide] | < 100
4 | CC(C)S(=O)(=O)c1cnc(N2C[C@@H](C)N(C(=O)OC3CC4(C3)CN(Cc3ccccc3)C4)[C@@H](C)C2)nc1 [Compound 42, 2-benzyl-2-azaspiro [3.3]heptan-6-yl (2R,6S)-2,6-dimethyl-4-[5-(propane-2-sulfonyl)pyrimidin-2-yl]piperazine-1-carboxylate] | 100 to 500
